The source of these data is the OligoGym collection.

HELM strings list units from the 5' end as sugar, base in round brackets, then linkage (d deoxyribose, r ribose, m 2'-O-methyl, p phosphodiester). Strings are as the collection lists them, not checked against the first reports. ss, as = sense and antisense strand; [lna] = locked nucleic acid (LNA); [hna] = hexitol nucleic acid; [fl2r] = 2'-fluoro
Also: test system not given here.

For the series the following is noted: siRNA.
With “RNA1{r(G)p.r(A)p.r(C)p.r(G)p.[hna](U)p.r(A)p.r(A)p.[hna](A)p.r(C)p.r(G)p.[hna](G)p.r(C)p.r(C)p.[hna](A)p.r(C)p.r(A)p.r(A)p.r(G)p.r(U)p.[hna](U)p.d(T)}|RNA2{[fl2r](A)p.m(C)p.[fl2r](U)p.m(U)p.[fl2r](G)p.m(U)p.[fl2r](G)p.m(G)p.[fl2r](C)p.m(C)p.[fl2r](G)p.m(U)p.[fl2r](U)p.m(U)p.[fl2r](A)p.m(C)p.[fl2r](G)p.m(U)p.[fl2r](C)p.m(G)p.[fl2r](C)}$$$RNA1{StrandType:ss}|RNA2{StrandType:as}$”, the target mRNA knockdown worked out at 13.2%.

In turn, “RNA1{r(G)p.r(A)p.r(C)p.r(G)p.[hna](U)p.r(A)p.r(A)p.[hna](A)p.r(C)p.r(G)p.[hna](G)p.r(C)p.r(C)p.[hna](A)p.r(C)p.r(A)p.r(A)p.r(G)p.r(U)p.[hna](U)p.d(T)}|RNA2{r(A)p.[hna](C)p.r(U)p.r(U)p.r(G)p.r(U)p.r(G)p.r(G)p.r(C)p.r(C)p.r(G)p.r(U)p.r(U)p.r(U)p.r(A)p.r(C)p.r(G)p.[hna](U)p.[hna](C)p.[hna](G)p.d(T)}$$$RNA1{StrandType:ss}|RNA2{StrandType:as}$” returned a target mRNA knockdown of 11.9%.

On to “RNA1{r(G)p.r(A)p.r(C)p.r(G)p.[hna](U)p.r(A)p.r(A)p.[hna](A)p.r(C)p.r(G)p.[hna](G)p.r(C)p.r(C)p.[hna](A)p.r(C)p.r(A)p.r(A)p.r(G)p.r(U)p.[hna](U)p.d(T)}|RNA2{r(A)p.m(C)p.r(U)p.r(U)p.r(G)p.r(U)p.r(G)p.r(G)p.r(C)p.r(C)p.r(G)p.r(U)p.r(U)p.r(U)p.r(A)p.r(C)p.r(G)p.r(U)p.r(C)p.r(G)p.r(C)}$$$RNA1{StrandType:ss}|RNA2{StrandType:as}$”, for which the target mRNA knockdown turned out to be 38%.

“RNA1{r(G)p.r(A)p.r(C)p.r(G)p.[hna](U)p.r(A)p.r(A)p.[hna](A)p.r(C)p.r(G)p.[hna](G)p.r(C)p.r(C)p.[hna](A)p.r(C)p.r(A)p.r(A)p.r(G)p.r(U)p.[hna](U)p.d(T)}|RNA2{r(A)p.r(C)p.[hna](U)p.r(U)p.r(G)p.r(U)p.r(G)p.r(G)p.r(C)p.r(C)p.r(G)p.r(U)p.r(U)p.r(U)p.r(A)p.r(C)p.r(G)p.[hna](U)p.[hna](C)p.[hna](G)p.d(T)}$$$RNA1{StrandType:ss}|RNA2{StrandType:as}$” showed a target mRNA knockdown of 25.2%.

Consider “RNA1{r(G)p.r(A)p.r(C)p.r(G)p.[hna](U)p.r(A)p.r(A)p.[hna](A)p.r(C)p.r(G)p.[hna](G)p.r(C)p.r(C)p.[hna](A)p.r(C)p.r(A)p.r(A)p.r(G)p.r(U)p.[hna](U)p.d(T)}|RNA2{r(A)p.r(C)p.r(U)p.r(U)p.r(G)p.r(U)p.r(G)p.r(G)p.r(C)p.r(C)p.r(G)p.r(U)p.r(U)p.r(U)p.r(A)p.r(C)p.r(G)p.[hna](U)p.[hna](C)p.[hna](G)p.d(T)}$$$RNA1{StrandType:ss}|RNA2{StrandType:as}$”, for which the target mRNA knockdown worked out at 48.7%.

Substance “RNA1{r(G)p.r(A)p.r(C)p.r(G)p.[hna](U)p.r(A)p.r(A)p.[hna](A)p.r(C)p.r(G)p.[hna](G)p.r(C)p.r(C)p.[hna](A)p.r(C)p.r(A)p.r(A)p.r(G)p.r(U)p.r(U)p.d(T)}|RNA2{r(A)p.[hna](C)p.r(U)p.r(U)p.r(G)p.r(U)p.r(G)p.r(G)p.[hna](C)p.r(C)p.r(G)p.r(U)p.r(U)p.r(U)p.r(A)p.r(C)p.r(G)p.[hna](U)p.[hna](C)p.[hna](G)p.d(T)}$$$RNA1{StrandType:ss}|RNA2{StrandType:as}$” yielded a target mRNA knockdown of 0%.

In turn, “RNA1{r(G)p.r(A)p.r(C)p.r(G)p.[hna](U)p.r(A)p.r(A)p.[hna](A)p.r(C)p.r(G)p.[hna](G)p.r(C)p.r(C)p.[hna](A)p.r(C)p.r(A)p.r(A)p.r(G)p.r(U)p.r(U)p.d(T)}|RNA2{r(A)p.r(C)p.[lna](T)p.r(U)p.r(G)p.[lna](T)p.r(G)p.r(G)p.r(C)p.r(C)p.r(G)p.r(U)p.r(U)p.[lna](T)p.r(A)p.r(C)p.r(G)p.[lna](T)p.r(C)p.[lna](G)p.[lna](C)}$$$RNA1{StrandType:ss}|RNA2{StrandType:as}$” yielded a target mRNA knockdown of 8.9%.

Substance “RNA1{r(G)p.r(A)p.r(C)p.r(G)p.[hna](U)p.r(A)p.r(A)p.[hna](A)p.r(C)p.r(G)p.[hna](G)p.r(C)p.r(C)p.[hna](A)p.r(C)p.r(A)p.r(A)p.r(G)p.r(U)p.r(U)p.d(T)}|RNA2{r(A)p.r(C)p.r(U)p.r(U)p.r(G)p.r(U)p.r(G)p.r(G)p.r(C)p.r(C)p.r(G)p.r(U)p.r(U)p.r(U)p.r(A)p.r(C)p.r(G)p.r(U)p.[lna](C)p.[lna](G)p.r(C)}$$$RNA1{StrandType:ss}|RNA2{StrandType:as}$” had a target mRNA knockdown of 77.3%.

As to “RNA1{r(G)p.r(A)p.r(C)p.r(G)p.[hna](U)p.r(A)p.r(A)p.[hna](A)p.r(C)p.r(G)p.[hna](G)p.r(C)p.r(C)p.[hna](A)p.r(C)p.r(A)p.r(A)p.r(G)p.r(U)p.r(U)p.d(T)}|RNA2{r(A)p.r(C)p.r(U)p.r(U)p.r(G)p.r(U)p.r(G)p.r(G)p.r(C)p.r(C)p.r(G)p.r(U)p.r(U)p.r(U)p.r(A)p.r(C)p.r(G)p.r(U)p.r(C)p.r(G)p.r(C)}$$$RNA1{StrandType:ss}|RNA2{StrandType:as}$”, the target mRNA knockdown stood at 81.2%.

“RNA1{r(G)p.r(A)p.r(C)p.r(G)p.r(U)p.r(A)p.r(A)p.r(A)p.r(C)p.r(G)p.r(G)p.r(C)p.r(C)p.r(A)p.r(C)p.r(A)p.r(A)p.r(G)p.[hna](U)p.[hna](U)p.r(C)}|RNA2{[fl2r](A)p.m(C)p.[fl2r](U)p.m(U)p.[fl2r](G)p.m(U)p.[fl2r](G)p.m(G)p.[fl2r](C)p.m(C)p.[fl2r](G)p.m(U)p.[fl2r](U)p.m(U)p.[fl2r](A)p.m(C)p.[fl2r](G)p.m(U)p.[fl2r](C)p.m(G)p.[fl2r](C)}$$$RNA1{StrandType:ss}|RNA2{StrandType:as}$”: the target mRNA knockdown is 45.8%.

In the case of “RNA1{r(G)p.r(A)p.r(C)p.r(G)p.r(U)p.r(A)p.r(A)p.r(A)p.r(C)p.r(G)p.r(G)p.r(C)p.r(C)p.r(A)p.r(C)p.r(A)p.r(A)p.r(G)p.[hna](U)p.[hna](U)p.r(C)}|RNA2{r(A)p.m(C)p.r(U)p.r(U)p.r(G)p.r(U)p.r(G)p.r(G)p.r(C)p.r(C)p.r(G)p.r(U)p.r(U)p.r(U)p.r(A)p.r(C)p.r(G)p.r(U)p.r(C)p.r(G)p.r(C)}$$$RNA1{StrandType:ss}|RNA2{StrandType:as}$”, the target mRNA knockdown was determined as 57%.

The substance “RNA1{r(G)p.r(A)p.r(C)p.r(G)p.r(U)p.r(A)p.r(A)p.r(A)p.r(C)p.r(G)p.r(G)p.r(C)p.r(C)p.r(A)p.r(C)p.r(A)p.r(A)p.r(G)p.[hna](U)p.[hna](U)p.r(C)}|RNA2{r(A)p.r(C)p.[lna](T)p.r(U)p.r(G)p.[lna](T)p.r(G)p.r(G)p.r(C)p.r(C)p.r(G)p.r(U)p.r(U)p.[lna](T)p.r(A)p.r(C)p.r(G)p.[lna](T)p.r(C)p.[lna](G)p.[lna](C)}$$$RNA1{StrandType:ss}|RNA2{StrandType:as}$” registered a target mRNA knockdown of 13.3%.

With “RNA1{r(G)p.r(A)p.r(C)p.r(G)p.r(U)p.r(A)p.r(A)p.r(A)p.r(C)p.r(G)p.r(G)p.r(C)p.r(C)p.r(A)p.r(C)p.r(A)p.r(A)p.r(G)p.[hna](U)p.[hna](U)p.r(C)}|RNA2{r(A)p.r(C)p.r(U)p.r(U)p.r(G)p.r(U)p.r(G)p.r(G)p.r(C)p.r(C)p.r(G)p.r(U)p.r(U)p.r(U)p.r(A)p.r(C)p.r(G)p.r(U)p.[lna](C)p.[lna](G)p.r(C)}$$$RNA1{StrandType:ss}|RNA2{StrandType:as}$”, the target mRNA knockdown is 83.8%.

Consider “RNA1{r(G)p.r(A)p.r(C)p.r(G)p.r(U)p.r(A)p.r(A)p.r(A)p.r(C)p.r(G)p.r(G)p.r(C)p.r(C)p.r(A)p.r(C)p.r(A)p.r(A)p.r(G)p.[hna](U)p.[hna](U)p.r(C)}|RNA2{r(A)p.r(C)p.r(U)p.r(U)p.r(G)p.r(U)p.r(G)p.r(G)p.r(C)p.r(C)p.r(G)p.r(U)p.r(U)p.r(U)p.r(A)p.r(C)p.r(G)p.r(U)p.r(C)p.r(G)p.r(C)}$$$RNA1{StrandType:ss}|RNA2{StrandType:as}$”, for which the target mRNA knockdown was 88.7%.

Consider “RNA1{r(G)p.r(A)p.r(C)p.r(G)p.r(U)p.r(A)p.r(A)p.r(A)p.r(C)p.r(G)p.r(G)p.r(C)p.r(C)p.r(A)p.r(C)p.r(A)p.r(A)p.r(G)p.r(U)p.[lna](T)p.[lna](C)}|RNA2{[fl2r](A)p.m(C)p.[fl2r](U)p.m(U)p.[fl2r](G)p.m(U)p.[fl2r](G)p.m(G)p.[fl2r](C)p.m(C)p.[fl2r](G)p.m(U)p.[fl2r](U)p.m(U)p.[fl2r](A)p.m(C)p.[fl2r](G)p.m(U)p.[fl2r](C)p.m(G)p.[fl2r](C)}$$$RNA1{StrandType:ss}|RNA2{StrandType:as}$”, for which the target mRNA knockdown was 81.2%.

“RNA1{r(G)p.r(A)p.r(C)p.r(G)p.r(U)p.r(A)p.r(A)p.r(A)p.r(C)p.r(G)p.r(G)p.r(C)p.r(C)p.r(A)p.r(C)p.r(A)p.r(A)p.r(G)p.r(U)p.[lna](T)p.[lna](C)}|RNA2{r(A)p.m(C)p.r(U)p.r(U)p.r(G)p.r(U)p.r(G)p.r(G)p.r(C)p.r(C)p.r(G)p.r(U)p.r(U)p.r(U)p.r(A)p.r(C)p.r(G)p.r(U)p.r(C)p.r(G)p.r(C)}$$$RNA1{StrandType:ss}|RNA2{StrandType:as}$” displayed a target mRNA knockdown of 81%.

Take “RNA1{r(G)p.r(A)p.r(C)p.r(G)p.r(U)p.r(A)p.r(A)p.r(A)p.r(C)p.r(G)p.r(G)p.r(C)p.r(C)p.r(A)p.r(C)p.r(A)p.r(A)p.r(G)p.r(U)p.[lna](T)p.[lna](C)}|RNA2{r(A)p.r(C)p.[lna](T)p.r(U)p.r(G)p.[lna](T)p.r(G)p.r(G)p.r(C)p.r(C)p.r(G)p.r(U)p.r(U)p.[lna](T)p.r(A)p.r(C)p.r(G)p.[lna](T)p.r(C)p.[lna](G)p.[lna](C)}$$$RNA1{StrandType:ss}|RNA2{StrandType:as}$”: the target mRNA knockdown came to 3%.

As to “RNA1{r(G)p.r(A)p.r(C)p.r(G)p.r(U)p.r(A)p.r(A)p.r(A)p.r(C)p.r(G)p.r(G)p.r(C)p.r(C)p.r(A)p.r(C)p.r(A)p.r(A)p.r(G)p.r(U)p.[lna](T)p.[lna](C)}|RNA2{r(A)p.r(C)p.r(U)p.r(U)p.r(G)p.r(U)p.r(G)p.r(G)p.r(C)p.r(C)p.r(G)p.r(U)p.r(U)p.r(U)p.r(A)p.r(C)p.r(G)p.r(U)p.[lna](C)p.[lna](G)p.r(C)}$$$RNA1{StrandType:ss}|RNA2{StrandType:as}$”, the target mRNA knockdown turned out to be 86.7%.

In turn, “RNA1{r(G)p.r(A)p.r(C)p.r(G)p.r(U)p.r(A)p.r(A)p.r(A)p.r(C)p.r(G)p.r(G)p.r(C)p.r(C)p.r(A)p.r(C)p.r(A)p.r(A)p.r(G)p.r(U)p.[lna](T)p.[lna](C)}|RNA2{r(A)p.r(C)p.r(U)p.r(U)p.r(G)p.r(U)p.r(G)p.r(G)p.r(C)p.r(C)p.r(G)p.r(U)p.r(U)p.r(U)p.r(A)p.r(C)p.r(G)p.r(U)p.r(C)p.r(G)p.r(C)}$$$RNA1{StrandType:ss}|RNA2{StrandType:as}$” yielded a target mRNA knockdown of 87.4%.
